Source: patent US4342780A, “Method of depleting endogenous monoamines” (Merrell-Toraude et Cie, priority 1981, dated 1982)

Columns and labels:
[1] = tested on: dopamine, noradrenaline and serotonin content; assay: Effect of repeated administration on catecholamine and serotonin content of the mouse brain (Table V); type: in vivo, Male albino mice; settings: 5 × 100 mg/kg i.p. every 12 hours
Method: The following example illustrates the effect of repeated administration of 2-amino-2-fluoromethyl-3(3,4-dihydroxyphenyl)propionic acid in the brain.
Male albino mice (25-30 g) from Charles River, France and dosed i.p. with 100 mg/kg of 2-amino-2-fluoromethyl-3-(3,4-dihydroxyphenyl)propionic acid every 12 hours for 5 doses. Saline solution is used as a control. The mice are sacrificed and the catecholamines, dopamine and noradrenaline, and serotonin (5-hydroxytryptamine) are determined by reverse-phase ion-pair high pressure liquid chromatography using electrochemical detection.

[2] = tested on: catecholamine content (norepinephrine, dopamine); assay: Catecholamine content in organs of mice after repeated i.p. doses (Table II); type: in vivo, mice (Swiss Albino); settings: three days, 12 h after 6th dose, vs control
Method: (§1) The test animals (e.g. mice or rats) are given the test compound in a suitable vehicle, either orally or by injection, each day over the period of time desired. The animals are kept on a constant time cycle, and body weights are measured daily. The animals are sacrificed by decapitation 12 to 24 hours after receiving the last dose of the test compound. Control animals receive the vehicle alone.
(§2) Immediately after death, the organs (brain, heart, and kidney) are removed and homogenized either in 50 ml phosphate buffer pH 6.8 for AADC determination or in ice-cold 0.4 M HClO4 containing 0.05% (w/v) EDTA and 0.1% (w/v) sodium bisulfite for catecholamine determination. AADC activity is determined by the ^14 CO2 trapping method of J. Christenson, supra (see Example 14) using DL-[1-^14 C]-dopa as the substrate. Catecholamines are determined by centrifuging the homogenate, adding the supernatant to alumina buffered to pH 8.0-8.4 to adsorb the catecholamines, re-extracting the catecholamines from the alumina with 0.2 M HClO4 and determining the catecholamines in the extracts using known procedures, such as by reversed-phase ion-pair HPLC with electrochemical detection.
Table II, shown below, sets forth the results obtained by testing particular compounds of Formula I in the above-described procedure in mice (Swiss Albino) after i.p. administration of the compound twice daily for three days: […]

[3] = tested on: catecholamine content (norepinephrine, dopamine); assay: Catecholamine content in organs of rats after oral administration once daily for 15 days (Table III); type: in vivo, rats (Sprague-Dawley); settings: 24 h after 15th dose, vs control; for % CHANGE Brain Dopamine: * not significant
Method: as §1, §2
Table III gives the results obtained by testing particular compounds of Formula I in rats (Sprague-Dawley) after oral administration of the test compound once daily for 15 days. AADC activity was not determined.

AADC = target: T1, AADC (Sus scrofa, UniProt P80041); assay: In vitro AADC inhibition: time of 90% inactivation (14CO2 trapping, DL-[1-14C]-dopa substrate); type: biochemical, hog; design: key to RATING: ++++: The relative activities of the compounds are rated by the given number of "plus" signs; +++: The relative activities of the compounds are rated by the given number of "plus" signs; 0-+: The relative activities of the compounds are rated by the given number of "plus" signs; settings: CONC. 10 μM
T1 sequence (P80041 1-486): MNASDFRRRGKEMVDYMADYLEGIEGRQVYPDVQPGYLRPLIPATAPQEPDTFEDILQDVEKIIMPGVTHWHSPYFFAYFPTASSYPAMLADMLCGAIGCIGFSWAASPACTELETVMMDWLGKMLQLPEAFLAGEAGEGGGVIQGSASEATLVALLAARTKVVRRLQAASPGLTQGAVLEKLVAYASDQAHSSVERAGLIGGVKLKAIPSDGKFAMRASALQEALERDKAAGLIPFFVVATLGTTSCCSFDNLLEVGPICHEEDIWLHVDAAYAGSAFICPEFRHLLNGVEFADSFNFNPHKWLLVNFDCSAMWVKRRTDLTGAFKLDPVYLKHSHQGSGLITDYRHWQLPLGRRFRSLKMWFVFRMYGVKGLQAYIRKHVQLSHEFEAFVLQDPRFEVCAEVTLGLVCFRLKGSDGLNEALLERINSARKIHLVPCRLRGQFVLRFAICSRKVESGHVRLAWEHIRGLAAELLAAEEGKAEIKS
Method: AADC can be purified from hog kidney by the general method of J. Christenson et al. Archs. Biochem. Biophys., 141, 356 (1970) and G. Lancaster et al., Can. J. Biochem., 50, 791 (1972), and the specific activity of the enzyme is determined by the ^14 CO2 trapping method using DL-[1-^14 C]-dopa as the substrate (see Christenson et al.). One unit of activity is defined as the total amount of enzyme which produces 1 n mol of CO2 per minute, with DL-[1-^14 C]-dopa as substrate.
To 100 μl of 50 mM-phosphate buffer pH 7.4 containing 100 mM-mercapto-ethanol are added 5 μl of an aqueous solution containing the test compound at the desired concentration and 50 μl of an aqueous solution containing 2 units of AADC. The mixture is incubated at 37° C. and 20 μl aliquots are removed at various times. The AADC activity remaining in each aliquot is measured by the CO2 trapping method of Christenson.
The relative activities of the compounds are rated by the given number of "plus" signs.

[4] = tested on: catecholamine levels (dopamine, noradrenaline); assay: Effect of dopamine injection on catecholamine levels in heart and brain of mice treated with test compound (Table VI); type: in vivo, Male albino mice; settings: ± SEM, n = 5; for Heart Dopamine: control 20 ± 2; for Brain Noradrenaline: control 516 ± 24; for Heart Noradrenaline: control 760 ± 87; for Brain Dopamine: control 1183 ± 28
Method: Saline solution is used as a control. The mice are sacrificed and the catecholamines, dopamine and noradrenaline, and serotonin (5-hydroxytryptamine) are determined by reverse-phase ion-pair high pressure liquid chromatography using electrochemical detection. […] Twelve hours after the second dose, one group of animals received an i.p. injection of 50 mg/kg of dopamine-HCl (Sigma, Chem. Co), the other group received saline instead. Three hours after the dopamine injection, the animals were killed and catecholamines were measured in heart and brain as described in Example 18.

[5] = 5 mg/kg oral once daily 15 days
[6] = 10 mg/kg oral once daily 15 days
[7] = 15 mg/kg oral once daily 15 days
[8] = 20 mg/kg oral once daily 15 days
[9] = 2 × 100 mg/kg test compound + dopamine 50 mg/kg i.p., * marked
[10] = 2 × 100 mg/kg test compound + saline, * marked

SMILES: NC(CF)(Cc1ccc(O)c(O)c1)C(=O)O (stereo not shown) [3,4-diOH-phenyl, 2-Amino-2-fluoromethyl-3-(3,4-dihydroxyphenyl)propionic acid]
- % Reduction Dopamine (brain) ([1]; vs saline): -97%
- % Reduction Noradrenaline (brain) ([1]; vs saline): -94%
- % Reduction Serotonin (brain) ([1]; vs saline): -83%
- Noradrenaline content of the brain ([1]; ± S.E.M., saline 310 ± 15): 19.6 ± 3 ng/g
- Dopamine content of the brain ([1]; ± S.E.M., saline 722 ± 47): 18.6 ± 2 ng/g
- Serotonin content of the brain ([1]; ± S.E.M., saline 1685 ± 29): 282 ± 25 ng/g
- % CHANGE NOREPINEPHRINE Brain ([2]; 10 mg/kg i.p. twice daily, * not significant): -55%
- % CHANGE NOREPINEPHRINE Heart ([2]; 10 mg/kg i.p. twice daily, * not significant (-25*, -7*)): -39%
- % CHANGE DOPAMINE Brain ([2]; 10 mg/kg i.p. twice daily, * not significant (-25*, -9*)): 0%
- % CHANGE NOREPINEPHRINE Brain ([2]; 100 mg/kg i.p. twice daily): -80%
- % CHANGE NOREPINEPHRINE Heart ([2]; 100 mg/kg i.p. twice daily): -80%
- % CHANGE DOPAMINE Brain ([2]; 100 mg/kg i.p. twice daily, * not significant (-35*)): -80%
- % CHANGE Brain Norepinephrine [3, 5]: -25%
- % CHANGE Heart Norepinephrine [3, 5]: -56%
- % CHANGE Brain Dopamine [3, 5]: -2%
- % CHANGE Brain Norepinephrine [3, 6]: -47%
- % CHANGE Heart Norepinephrine [3, 6]: -67%
- % CHANGE Brain Dopamine [3, 6]: -8%
- % CHANGE Brain Norepinephrine [3, 7]: -51%
- % CHANGE Heart Norepinephrine [3, 7]: -68%
- % CHANGE Brain Dopamine [3, 7]: -6%
- % CHANGE Brain Norepinephrine [3, 8]: -49%
- % CHANGE Heart Norepinephrine [3, 8]: -72%
- % CHANGE Brain Dopamine [3, 8]: -10%
- TIME OF 90% INACTIVATION (AADC; pH 7.4, 37° C.): 1 to 2 min
- RATING (AADC; relative activity): ++++
- Heart Dopamine [4, 9]: 429 ± 39 ng/g
- Brain Noradrenaline [4, 9]: 42 ± 4 ng/g
- Heart Noradrenaline ([4]; 2 × 100 mg/kg test compound + dopamine 50 mg/kg i.p.): 882 ± 47 ng/g
- Brain Dopamine [4, 9]: 92 ± 8 ng/g
- Heart Dopamine ([4]; 2 × 100 mg/kg test compound + saline): 98 ± 62 ng/g
- Brain Noradrenaline [4, 10]: 44 ± 6 ng/g
- Heart Noradrenaline [4, 10]: 173 ± 24 ng/g
- Brain Dopamine [4, 10]: 47 ± 5 ng/g
